Results as given in patent US20170266123A1, “COATED PARTICLES FOR DRUG DELIVERY” (Dana-Farber Cancer Institute, Inc., priority 2014, published 2017).

Key:
4T1 cells = experiment: Viability of 4T1 cells exposed to Dox or Dox-laden nanoparticles through matrigel; type: cell-based; settings: 500 ng/mL Dox; 3, 6 and 24 hours
Experimental: Nanoparticles with doxorubicin in the core were formed as described in Example 1, except doxorubicin was added to the organic solvent. The particles were coated as described in Example 10. To test the cell viability for cells exposed to doxorubicin particles, 500 ng/mL of Dox or Dox-laden nanoparticles were added to matrigel on top chamber of a 24 well plates seeded with 4T1 cells. Plates were incubated at 37° C., while gently shaken. The viability was measured at 3 hours, 6 hours, and 24 hours. Cell viability was determined as described in Example 5. For the mammosphere assay, 4T1 cells were seeded at 1000 cells/150 uL/well in 96 well ultra-low adherence plate. The remaining 4T1 cells after treatment were harvested and filtered and the number of mammospheres counted using microscopy.

[1] = system: SKOV-3 (human ovarian cancer); experiment: PTX cytotoxicity, MTT assay, SKOV3; type: cell-based; settings: SK-OV-3, SKOV3, 72 hours
Experimental: (§1) Cells were seeded at a density of 10,000 cells per well in a 96-well and incubated overnight in 200 μL of complete medium. The culture medium was then replaced with 198 μL of fresh medium, two free drug/DMSO solution or NP suspensions in the final concentration ranging from 0.001 to 10,000 nM. After 72 hours of incubation, the medium was replaced with 100 μL of fresh medium containing 13% MTT and incubated for 3.5 hours. Finally, 100 μL of the solubilization/stop solution comprising 20% SDS, 0.02% v/v acetic acid, and 50% v/v DMSO was added to each well, and the absorbance was read at 560 nm by the microplate reader. Cell viability was calculated by dividing the absorbance of treated cells by that of untreated cells after subtracting the absorbance of cell-free medium from each. Here, the untreated cells were those provided with no drug but handled equally otherwise, and the cell-free medium was the medium mixed with MTT solution and stop-solution without cells.
(§2) Cell viability was determined as described in Example 5.

[2] = PTX content in murine blood and peritoneal cavity after IP dosing; type: in vivo; settings: female, FVB, mouse, mice, IP 5 mg/kg, 3 hours post dosing
Experimental: Six week-old female FVB mice were obtained from Charles River Laboratory (Boston, USA). Mice were housed in a pathogen-free facility in accordance with the standards of the Dana-Farber Cancer Institute. All animal experiments were approved by the Institute's IACUC. Mice were kept in groups of 4-5 per cage in a 12 hour light/12 hour dark cycle and housed at 25° C. with 50% relative humidity. […] Mice were anaesthetized, and blood samples were collected via retro-orbital bleeding 3 hours post dosing. Blood samples were kept on ice until centrifugation. Samples were centrifuged at 1,400 RCF for 10 min, and plasma was collected. After blood sample collection, mice were sacrificed, and their peritoneal cavities were washed thrice post-mortem with PBS. Plasma and peritoneal washes were flash frozen with liquid nitrogen and lyophilized. The lyophilized powders were rehydrated in 300 μL water and extracted with tert-butyl methyl ether (tBME). The organic solvent was dried under nitrogen.

[3] = system: Calu6 (human lung cancer); experiment: PTX cytotoxicity, MTT assay, Calu6; type: cell-based; settings: Calu-6, Calu6, 72 hours
Experimental: as §1, §2

[4] = system: BR5FVB1-Akt (murine ovarian cancer); experiment: PTX cytotoxicity, MTT assay, BR5FVB1-Akt; type: cell-based; settings: Mus musculus, 72 hours
Experimental: as §1, §2

BR5FVB1-Akt cells = experiment: Survival study in immunocompetent murine model of ovarian cancer; type: in vivo, mouse; settings: FVB mice, IP 5 mg/kg twice weekly, five doses
Experimental: The BR5FVB1-Akt mouse ovarian cancer cell line was cultured in DMEM supplemented with 10% FBS and 1% penicillin/streptomycin at 37° C. with 5% CO2. Subconfluent BR5FVB1-Akt cells were trypsinized, washed, and suspended in opti-MEM as a single-cell suspension. Six week-old female FVB mice were injected IP with a total volume of 400 μl opti-MEM containing 3.75×10^6 BR5FVB1-Akt cells.
Mice were sacrificed by CO2 asphyxiation upon ascites development. Their peritoneal cavities were opened postmortem to observe tumor location and extent of metastasis in the peritoneal region. All FVB mice inoculated with BR5FVB1-Akt cells developed tumors. Tumors developed gradually and manifested by formation of ascites in the peritoneal cavity. Tumors were detectable post-mortem as nodules of various sizes and number on the peritoneal wall or adhered to the intestine.
Statistical analysis was performed with GraphPad Prism 5 (La Jolla, Calif., USA). Statistical significance among groups was determined by one-way ANOVA, and pairs were compared by Tukey's multi-comparison test. Survival groups were compared using a Mantel-Cox test.

Structure (SMILES)	viability of cells (4T1 cells)	IC50 [1] [nM]	concentration at 3 h ([2]; peritoneal lavage (PBS wash of peritoneal cavity)) [ng/mL]	concentration at 3 h ([2]; plasma) [ng/mL]	IC50 [3] [nM]	IC50 [4] [nM]	tumor onset (BR5FVB1-Akt cells)
COc1cccc2c1C(=O)c1c(O)c3c(c(O)c1C2=O)C[C@@](O)(C(=O)CO)C[C@@H]3O[C@H]1C[C@H](N)[C@H](O)[C@H](C)O1 [Dox in solution, doxorubicin]	reduced viability of cells	–	–	–	–	–	–
CC(=O)O[C@H]1C(=O)[C@@]2(C)[C@H]([C@H](OC(=O)c3ccccc3)[C@]3(O)C[C@H](OC(=O)[C@H](O)[C@@H](NC(=O)c4ccccc4)c4ccccc4)C(C)=C1C3(C)C)[C@]1(OC(C)=O)CO[C@@H]1C[C@@H]2O [PTX, paclitaxel]	–	~10	4500 ± 1300	9500 ± 1900	~10	~100	developed tumors at similar time points
